Assay results: patent publication US7880007B2, “Bicyclic substituted phenyl piperidine modulators of muscarinic receptors” (Vertex Pharmaceuticals Incorporated, priority 2004, dated 2011)

Columns and labels:
Format in all cases: cell-based
M4 muscarinic receptor = molecular target: T1, M4 muscarinic receptor (Homo sapiens, UniProt P08173); test: Functional mobilization of intracellular calcium (FLIPR), M4-CHO cells; conditions: for Emax: 100% efficacy = maximum response obtained with the Carbachol control; for M4 Activity: M4-CHO cells, calcium mobilization (FLIPR)
T1 construct: expressed in transfected cells; host or cells: CHO (M4-CHO)
T1 sequence (P08173 1-479): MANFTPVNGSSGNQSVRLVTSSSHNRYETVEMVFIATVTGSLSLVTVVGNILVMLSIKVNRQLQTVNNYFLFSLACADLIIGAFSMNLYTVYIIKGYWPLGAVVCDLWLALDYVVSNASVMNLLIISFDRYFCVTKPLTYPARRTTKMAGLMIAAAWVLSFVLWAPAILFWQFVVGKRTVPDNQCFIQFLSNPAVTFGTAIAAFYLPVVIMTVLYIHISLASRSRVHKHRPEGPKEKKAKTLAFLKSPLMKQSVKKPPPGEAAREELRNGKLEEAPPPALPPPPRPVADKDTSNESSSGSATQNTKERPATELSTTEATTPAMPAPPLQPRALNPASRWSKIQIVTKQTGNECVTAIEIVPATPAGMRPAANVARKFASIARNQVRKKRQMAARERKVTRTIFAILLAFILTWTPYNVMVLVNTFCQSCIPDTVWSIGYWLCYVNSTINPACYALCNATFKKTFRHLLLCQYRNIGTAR
Outline: (§1)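 FLIPR fluorescence (ex 488, em 540 nm) recorded 60 sec after compound addition to dye-loaded CHO cells. Agonist mode: compound alone. Antagonist mode: 15 min compound pre-incubation, then carbachol at EC80, or co-application. Efficacy expressed as % of maximal carbachol response.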

M2 muscarinic receptor = molecular target: T2, M2 muscarinic receptor (Homo sapiens, UniProt P08172); test: Functional mobilization of intracellular calcium (FLIPR), M2-CHO cells; conditions: for Emax: 100% efficacy = maximum response obtained with the Carbachol control; for M2 Activity: M2-CHO cells, calcium mobilization (FLIPR)
T2 construct: expressed in transfected cells; host or cells: CHO (M2-CHO)
T2 sequence (P08172 1-466): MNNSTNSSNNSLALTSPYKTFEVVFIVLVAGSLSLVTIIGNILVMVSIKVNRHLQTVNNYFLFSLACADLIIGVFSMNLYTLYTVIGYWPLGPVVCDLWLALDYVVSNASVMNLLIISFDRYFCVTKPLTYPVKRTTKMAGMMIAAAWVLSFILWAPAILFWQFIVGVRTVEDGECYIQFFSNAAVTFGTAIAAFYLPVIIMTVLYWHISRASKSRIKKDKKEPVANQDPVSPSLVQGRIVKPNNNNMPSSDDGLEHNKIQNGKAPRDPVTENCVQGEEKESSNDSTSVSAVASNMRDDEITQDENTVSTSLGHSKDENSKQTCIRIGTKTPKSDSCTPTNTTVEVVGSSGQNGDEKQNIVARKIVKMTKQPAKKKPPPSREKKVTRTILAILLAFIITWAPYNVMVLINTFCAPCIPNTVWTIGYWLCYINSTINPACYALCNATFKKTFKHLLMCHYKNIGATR
Outline: as §1

M3 muscarinic receptor = molecular target: T3, M3 muscarinic receptor (Homo sapiens, UniProt P20309); test: Functional mobilization of intracellular calcium (FLIPR), M3-CHO cells; conditions: for Emax: 100% efficacy = maximum response obtained with the Carbachol control; for M3 Activity: M3-CHO cells, calcium mobilization (FLIPR)
T3 construct: expressed in transfected cells; host or cells: CHO (M3-CHO)
T3 sequence (P20309 whole entry): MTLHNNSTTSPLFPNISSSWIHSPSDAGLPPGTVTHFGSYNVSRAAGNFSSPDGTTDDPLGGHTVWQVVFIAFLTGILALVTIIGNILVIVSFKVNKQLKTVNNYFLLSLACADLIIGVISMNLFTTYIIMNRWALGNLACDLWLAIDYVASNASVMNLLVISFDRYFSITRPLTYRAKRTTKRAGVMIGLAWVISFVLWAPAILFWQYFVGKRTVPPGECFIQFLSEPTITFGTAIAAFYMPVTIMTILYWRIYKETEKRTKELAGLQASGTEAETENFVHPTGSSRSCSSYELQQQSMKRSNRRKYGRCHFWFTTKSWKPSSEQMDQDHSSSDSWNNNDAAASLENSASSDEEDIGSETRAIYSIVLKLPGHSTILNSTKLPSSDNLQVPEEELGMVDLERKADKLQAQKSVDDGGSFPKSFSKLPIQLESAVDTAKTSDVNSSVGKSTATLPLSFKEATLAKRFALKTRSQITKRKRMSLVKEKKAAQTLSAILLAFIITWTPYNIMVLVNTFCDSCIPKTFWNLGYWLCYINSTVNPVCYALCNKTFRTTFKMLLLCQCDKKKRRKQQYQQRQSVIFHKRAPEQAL
Outline: as §1

M1 muscarinic receptor = molecular target: T4, M1 muscarinic receptor (Homo sapiens, UniProt P11229); test: Functional mobilization of intracellular calcium (FLIPR), M1-CHO cells; conditions: for Emax: 100% efficacy = maximum response obtained with the Carbachol control; for M1 Activity: M1-CHO cells, calcium mobilization (FLIPR)
T4 construct: expressed in transfected cells; host or cells: CHO (M1-CHO)
T4 sequence (P11229 1-460): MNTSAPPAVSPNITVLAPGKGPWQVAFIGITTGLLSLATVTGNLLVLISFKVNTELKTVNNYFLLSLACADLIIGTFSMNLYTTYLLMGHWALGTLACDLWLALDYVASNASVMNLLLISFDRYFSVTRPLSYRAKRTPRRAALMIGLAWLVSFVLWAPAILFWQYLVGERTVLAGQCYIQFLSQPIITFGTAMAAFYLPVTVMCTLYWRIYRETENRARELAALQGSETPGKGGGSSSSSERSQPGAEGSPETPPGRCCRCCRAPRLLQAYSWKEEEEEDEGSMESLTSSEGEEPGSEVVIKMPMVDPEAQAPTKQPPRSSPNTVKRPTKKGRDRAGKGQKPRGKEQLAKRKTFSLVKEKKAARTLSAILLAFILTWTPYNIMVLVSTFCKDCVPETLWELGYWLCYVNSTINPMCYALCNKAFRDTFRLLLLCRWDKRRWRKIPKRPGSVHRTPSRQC
Outline: as §1

| SMILES | Emax (M4 muscarinic receptor) | M4 Activity (M4 muscarinic receptor) | Emax (M2 muscarinic receptor) | M2 Activity (M2 muscarinic receptor) | Emax (M3 muscarinic receptor) | M3 Activity (M3 muscarinic receptor) | Emax (M1 muscarinic receptor) | M1 Activity (M1 muscarinic receptor) |
| --- | --- | --- | --- | --- | --- | --- | --- | --- |
| COc1ccc(Cl)cc1C1CCN(C2CC3CCC(C3)C2)CC1 (stereo not drawn) [Compound 27] | 25 to 100% | +++ (activity was measured to be less than 1.0 μM) | 25 to 100% | ++ (activity was measured to be from 1.0 μM to 5.0 μM) | < 25% | + (activity was measured to be greater than 5.0 μM) | 25 to 100% | ++ (activity was measured to be from 1.0 μM to 5.0 μM) |
| COc1ccccc1C1(O)CCN(CC2CC3C=CC2C3)CC1 (stereo not drawn) [Compound 29] | 25 to 100% | ++ (activity was measured to be from 1.0 μM to 5.0 μM) | < 25% | + (activity was measured to be greater than 5.0 μM) |  | + (activity was measured to be greater than 5.0 μM) | 25 to 100% | + (activity was measured to be greater than 5.0 μM) |
| CCOC(=O)N1CCC(N2CCC(O)(c3cc(Cl)ccc3OC)CC2)CC1 [Compound 31] | 25 to 100% | +++ (activity was measured to be less than 1.0 μM) | < 25% | + (activity was measured to be greater than 5.0 μM) | < 25% | + (activity was measured to be greater than 5.0 μM) | 25 to 100% | ++ (activity was measured to be from 1.0 μM to 5.0 μM) |
| FC(F)(F)c1ccccc1C1CCN(C2C[C@H]3CC[C@H]2C3)CC1 (stereo partly drawn) [Compound 32] | 25 to 100% |  | < 25% |  | < 25% |  | 25 to 100% |  |
| CCOC(=O)N1C2CCC1CC(N1CCC(c3cc(-c4ccc(C(C)(C)C#N)cc4)ccc3OC)CC1)C2 (stereo not drawn) [Compound 33] | 25 to 100% | ++ (activity was measured to be from 1.0 μM to 5.0 μM) | < 25% | + (activity was measured to be greater than 5.0 μM) | < 25% | + (activity was measured to be greater than 5.0 μM) | 25 to 100% | ++ (activity was measured to be from 1.0 μM to 5.0 μM) |
| COc1ccccc1C1CCN(C2CC(C)CC(C)C2)CC1 (stereo not drawn) [Compound 34] | < 25% | + (activity was measured to be greater than 5.0 μM) | < 25% | + (activity was measured to be greater than 5.0 μM) | < 25% | + (activity was measured to be greater than 5.0 μM) | < 25% | + (activity was measured to be greater than 5.0 μM) |
| COc1cc(F)ccc1C1CCN([C@@H]2C[C@H]3CC[C@H]2C3)CC1 [Compound 35] | 25 to 100% | +++ (activity was measured to be less than 1.0 μM) | < 25% | + (activity was measured to be greater than 5.0 μM) | < 25% | + (activity was measured to be greater than 5.0 μM) | 25 to 100% | + (activity was measured to be greater than 5.0 μM) |
| CNC(=O)c1ccc(-c2ccc(OC)c(C3CCN(C4CCCCC4)CC3)c2)cc1 [Compound 36] | 25 to 100% | ++ (activity was measured to be from 1.0 μM to 5.0 μM) | < 25% | + (activity was measured to be greater than 5.0 μM) | < 25% | + (activity was measured to be greater than 5.0 μM) | < 25% | + (activity was measured to be greater than 5.0 μM) |
| COc1ccccc1C1CC2CCC(C1)N2C1CCOCC1 (stereo not drawn) [Compound 37] | < 25% | + (activity was measured to be greater than 5.0 μM) | < 25% | + (activity was measured to be greater than 5.0 μM) | < 25% | + (activity was measured to be greater than 5.0 μM) | < 25% | + (activity was measured to be greater than 5.0 μM) |
| COc1ccccc1C1CCN(C2CCC[C@@H](C)C2)CC1 (stereo partly drawn) [Compound 38] | 25 to 100% | +++ (activity was measured to be less than 1.0 μM) | < 25% | + (activity was measured to be greater than 5.0 μM) | < 25% | + (activity was measured to be greater than 5.0 μM) | < 25% | + (activity was measured to be greater than 5.0 μM) |
| CCOC(=O)N1CCC(CN2CCC(c3cc(F)ccc3OC)CC2)CC1 [Compound 39] | 25 to 100% | +++ (activity was measured to be less than 1.0 μM) | 25 to 100% | +++ (activity was measured to be less than 1.0 μM) | < 25% | + (activity was measured to be greater than 5.0 μM) | 25 to 100% | +++ (activity was measured to be less than 1.0 μM) |
| COc1ccc(F)cc1C1(F)CCN(C2CC3CCC(C3)C2)CC1 (stereo not drawn) [Compound 40] | 25 to 100% | +++ (activity was measured to be less than 1.0 μM) | 25 to 100% | + (activity was measured to be greater than 5.0 μM) | < 25% | + (activity was measured to be greater than 5.0 μM) | 25 to 100% | ++ (activity was measured to be from 1.0 μM to 5.0 μM) |
| OC1(c2ccc(F)cc2F)CCN(C2C[C@H]3CC[C@H]2C3)CC1 (stereo partly drawn) [Compound 41] | < 25% | + (activity was measured to be greater than 5.0 μM) | < 25% | + (activity was measured to be greater than 5.0 μM) | < 25% | + (activity was measured to be greater than 5.0 μM) | < 25% | + (activity was measured to be greater than 5.0 μM) |
| CCOC(=O)C(C)(C)Oc1ccccc1C1CCN([C@H]2C[C@H]3CC[C@H]2C3)CC1 [Compound 42] | < 25% | ++ (activity was measured to be from 1.0 μM to 5.0 μM) | < 25% | + (activity was measured to be greater than 5.0 μM) | < 25% | + (activity was measured to be greater than 5.0 μM) | < 25% | + (activity was measured to be greater than 5.0 μM) |
| CCOC(=O)N1CCC(N2CCC(c3cc(-c4ccc(S(C)(=O)=O)cc4)ccc3OC)CC2)CC1 [Compound 43] | 25 to 100% | +++ (activity was measured to be less than 1.0 μM) | 25 to 100% | +++ (activity was measured to be less than 1.0 μM) | 25 to 100% | + (activity was measured to be greater than 5.0 μM) | > 100% | +++ (activity was measured to be less than 1.0 μM) |
| COc1ccc(Cl)cc1C1(F)CCN(C[C@@H]2C[C@H]3C=C[C@H]2C3)CC1 [Compound 44] | 25 to 100% | ++ (activity was measured to be from 1.0 μM to 5.0 μM) | 25 to 100% | + (activity was measured to be greater than 5.0 μM) | < 25% | + (activity was measured to be greater than 5.0 μM) | 25 to 100% | + (activity was measured to be greater than 5.0 μM) |
